Article PMC5848141, “A Pyridazine-Based Fluorescent Probe Targeting Aβ Plaques in Alzheimer's Disease” (Journal of Analytical Methods in Chemistry, 2018)

Biological target: T1, β-amyloid Aβ42 (aggregates) (Homo sapiens, UniProt P05067)
T1 construct: gene APP; synthetic Aβ42 peptide, aggregated (fibrils)
Assay: fluorescence saturation titration of probe with […] aggregated Aβ[…] in PBS
Format: binding
Conditions: read-out: Probe 3

T1 sequence (P05067 672-713 limits assumed): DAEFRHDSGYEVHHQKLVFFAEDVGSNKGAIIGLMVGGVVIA

Question: `CN(C)c1ccc(/C=C/n2ncc3c(c2=O)Oc2ccc(C=C(C#N)C(=O)O)cc2O3)cc1` [compound 3, probe 3] was tested. Which Kd did it give?
Answer: 350 ± 30 nM
